Results from ChEMBL document CHEMBL3797052 (Eur J Med Chem, 2016).

Legend:
[1] = Antiproliferative activity against human SF268 cells assessed as growth inhibition after 48 hrs by sulforhodamine B assay; assay type: functional; settings: SF-268, 48 h
[2] = Antiproliferative activity against human COLO205 cells assessed as cell growth at 10^-6 M after 48 hrs by sulforhodamine B assay; assay type: functional; settings: COLO 205, 48 h, read-out: Activity
[3] = Antiproliferative activity against human Hs 578T cells assessed as growth inhibition after 48 hrs by sulforhodamine B assay; assay type: functional; settings: for CC50: read-out: LC50 (the source's name)
NCI-H226 = assay: Antiproliferative activity against human NCI-H226 cells assessed as cell growth at 10^-6 M after 48 hrs by sulforhodamine B assay; assay type: functional; settings: NCI-H226, 48 h, read-out: Activity
[4] = Antiproliferative activity against human SNB75 cells assessed as cell growth at 10^-4 M after 48 hrs by sulforhodamine B assay; assay type: functional; settings: SNB-75, 48 h, read-out: Activity
[5] = Antiproliferative activity against human HOP92 cells assessed as cell growth at 10^-7 M after 48 hrs by sulforhodamine B assay; assay type: functional; settings: HOP-92, 48 h, read-out: Activity
[6] = Antiproliferative activity against human OVCAR4 cells assessed as growth inhibition after 48 hrs by sulforhodamine B assay; assay type: functional; settings: OVCAR-4, 48 h; for CC50: read-out: LC50 (the source's name)
[7] = Antiproliferative activity against human UO31 cells assessed as cell growth at 10^-7 M after 48 hrs by sulforhodamine B assay; assay type: functional; settings: UO-31, 48 h, read-out: Activity
[8] = Antiproliferative activity against human SF268 cells assessed as cell growth at 10^-4 M after 48 hrs by sulforhodamine B assay; assay type: functional; settings: SF-268, 48 h, read-out: Activity
CCRF-CEM = assay: Antiproliferative activity against human CCRF-CEM cells assessed as cell growth at 10^-8 M after 48 hrs by sulforhodamine B assay; assay type: functional; settings: read-out: Activity
A549 = assay: Antiproliferative activity against human A549/ATCC cells assessed as cell growth at […] after 48 hrs by sulforhodamine B assay; assay type: functional; settings: A549, 48 h, read-out: Activity
[9] = Antiproliferative activity against human HCT15 cells assessed as cell growth at 10^-6 M after 48 hrs by sulforhodamine B assay; assay type: functional; settings: HCT-15, 48 h, read-out: Activity
ACHN [10] = assay: Antiproliferative activity against human ACHN cells assessed as cell growth at 10^-4 M after 48 hrs by sulforhodamine B assay; assay type: functional; settings: read-out: Activity
[11] = Antiproliferative activity against human HCT116 cells assessed as growth inhibition after 48 hrs by sulforhodamine B assay; assay type: functional; settings: HCT-116, 48 h
[12] = Antiproliferative activity against human IGROV1 cells assessed as cell growth at 10^-4 M after 48 hrs by sulforhodamine B assay; assay type: functional; settings: IGROV-1, 48 h, read-out: Activity
[13] = Antiproliferative activity against human UO31 cells assessed as cell growth at 10^-4 M after 48 hrs by sulforhodamine B assay; assay type: functional; settings: UO-31, 48 h, read-out: Activity
[14] = Antiproliferative activity against human TK10 cells assessed as cell growth at 10^-6 M after 48 hrs by sulforhodamine B assay; assay type: functional; settings: TK-10, 48 h, read-out: Activity
[15] = Antiproliferative activity against human HCT15 cells assessed as growth inhibition after 48 hrs by sulforhodamine B assay; assay type: functional; settings: HCT-15, 48 h
[16] = Antiproliferative activity against human COLO205 cells assessed as cell growth at 10^-7 M after 48 hrs by sulforhodamine B assay; assay type: functional; settings: COLO 205, 48 h, read-out: Activity
[17] = Antiproliferative activity against human HOP62 cells assessed as cell growth at 10^-7 M after 48 hrs by sulforhodamine B assay; assay type: functional; settings: HOP-62, 48 h, read-out: Activity
[18] = Antiproliferative activity against human OVCAR4 cells assessed as cell growth at 10^-4 M after 48 hrs by sulforhodamine B assay; assay type: functional; settings: OVCAR-4, 48 h, read-out: Activity
SK-MEL-2 [19] = assay: Antiproliferative activity against human SK-MEL-2 cells assessed as growth inhibition after 48 hrs by sulforhodamine B assay; assay type: functional; settings: SK-MEL-2, 48 h; for CC50: read-out: LC50 (the source's name)
SK-MEL-2 [20] = assay: Antiproliferative activity against human SK-MEL-2 cells assessed as cell growth at 10^-7 M after 48 hrs by sulforhodamine B assay; assay type: functional; settings: SK-MEL-2, 48 h, read-out: Activity
[21] = Antiproliferative activity against human HCT116 cells assessed as cell growth at 10^-6 M after 48 hrs by sulforhodamine B assay; assay type: functional; settings: HCT-116, 48 h, read-out: Activity
ACHN [22] = assay: Antiproliferative activity against human ACHN cells assessed as cell growth at 10^-7 M after 48 hrs by sulforhodamine B assay; assay type: functional; settings: read-out: Activity
MCF7 = assay: Antiproliferative activity against human MCF7 cells assessed as cell growth at 10^-7 M after 48 hrs by sulforhodamine B assay; assay type: functional; settings: MCF7, 48 h, read-out: Activity
[23] = Antiproliferative activity against human LOXIMVI cells assessed as cell growth at 10^-6 M after 48 hrs by sulforhodamine B assay; assay type: functional; settings: LOX IMVI, read-out: Activity
SR = assay: Antiproliferative activity against human SR cells assessed as cell growth at 10^-8 M after 48 hrs by sulforhodamine B assay; assay type: functional; settings: read-out: Activity
[24] = Antiproliferative activity against human BT549 cells assessed as growth inhibition after 48 hrs by sulforhodamine B assay; assay type: functional; settings: BT-549, 48 h; for CC50: read-out: LC50 (the source's name)
T47D = assay: Antiproliferative activity against human T47D cells assessed as cell growth at 10^-6 M after 48 hrs by sulforhodamine B assay; assay type: functional; settings: read-out: Activity
[25] = Antiproliferative activity against human RXF393 cells assessed as cell growth at 10^-8 M after 48 hrs by sulforhodamine B assay; assay type: functional; settings: RXF 393, 48 h, read-out: Activity
[26] = Antiproliferative activity against human PC3 cells assessed as growth inhibition after 48 hrs by sulforhodamine B assay; assay type: functional; settings: PC-3, 48 h
K562 = assay: Antiproliferative activity against human K562 cells assessed as cell growth at 10^-7 M after 48 hrs by sulforhodamine B assay; assay type: functional; settings: K562, 48 h, read-out: Activity
[27] = Antiproliferative activity against human Hs 578T cells assessed as cell growth at 10^-4 M after 48 hrs by sulforhodamine B assay; assay type: functional; settings: read-out: Activity
[28] = Antiproliferative activity against human HCT15 cells assessed as cell growth at 10^-8 M after 48 hrs by sulforhodamine B assay; assay type: functional; settings: HCT-15, 48 h, read-out: Activity
MDA-MB-468 = assay: Antiproliferative activity against human MDA-MB-468 cells assessed as cell growth at […] after 48 hrs by sulforhodamine B assay; assay type: functional; settings: MDA-MB-468, 48 h, read-out: Activity
[29] = test system: Serine/threonine-protein kinase B-raf (Homo sapiens), P15056 [V600E]; assay: Inhibition of BRAF V600E mutant (unknown origin) at 10 uM measured after 40 mins by scintillation counting
Chain of Serine/threonine-protein kinase B-raf (Homo sapiens), P15056 [V600E] (P15056 whole entry V600E): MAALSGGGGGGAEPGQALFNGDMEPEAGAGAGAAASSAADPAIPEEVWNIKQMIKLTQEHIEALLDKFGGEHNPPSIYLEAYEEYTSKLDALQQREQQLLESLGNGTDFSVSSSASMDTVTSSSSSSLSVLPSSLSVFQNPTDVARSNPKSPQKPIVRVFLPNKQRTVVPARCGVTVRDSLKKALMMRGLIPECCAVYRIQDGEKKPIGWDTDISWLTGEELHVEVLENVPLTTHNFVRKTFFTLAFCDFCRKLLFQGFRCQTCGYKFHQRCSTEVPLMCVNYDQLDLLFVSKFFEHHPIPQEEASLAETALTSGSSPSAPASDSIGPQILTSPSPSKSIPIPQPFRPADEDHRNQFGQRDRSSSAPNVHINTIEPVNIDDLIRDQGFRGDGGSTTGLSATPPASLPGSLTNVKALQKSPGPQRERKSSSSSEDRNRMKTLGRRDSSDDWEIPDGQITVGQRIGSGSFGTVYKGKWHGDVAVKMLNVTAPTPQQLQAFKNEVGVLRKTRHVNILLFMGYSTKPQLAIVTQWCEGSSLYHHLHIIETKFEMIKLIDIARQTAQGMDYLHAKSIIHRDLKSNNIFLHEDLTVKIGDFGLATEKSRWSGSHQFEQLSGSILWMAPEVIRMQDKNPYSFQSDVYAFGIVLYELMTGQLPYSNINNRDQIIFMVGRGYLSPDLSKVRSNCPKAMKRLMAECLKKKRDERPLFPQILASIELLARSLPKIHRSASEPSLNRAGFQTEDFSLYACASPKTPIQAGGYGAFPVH

Compound: CNC(=O)c1cc(Oc2ccc3nc(NC(=O)c4cc(C(F)(F)F)cc(C(F)(F)F)c4)sc3c2)ccn1
- GI50 [1]: 2.66 µM
- LC50 (concentration killing 50% of cells) [1]: > 100 µM
- TGI [1]: 17 µM
- growth at 1 µM [2]: 99%
- GI50 [3]: 3.15 µM
- TGI [3]: 13.3 µM
- CC50 [3]: > 100 µM
- growth at 1 µM (NCI-H226): 101%
- growth at 100 µM [4]: -51%
- growth at 0.1 µM [5]: 86%
- GI50 [6]: 3.12 µM
- TGI [6]: 27.2 µM
- CC50 [6]: > 100 µM
- growth at 0.1 µM [7]: 86%
- growth at 100 µM [8]: -37%
- growth at 0.01 µM (CCRF-CEM): 99%
- growth at 0.1 µM (A549): 101%
- growth at 1 µM [9]: 96%
- growth at 100 µM (ACHN [10]): -82%
- GI50 [11]: 3.41 µM
- LC50 (concentration killing 50% of the starting cells) [11]: 42.4 µM
- TGI [11]: 11.9 µM
- growth at 100 µM [12]: -35%
- growth at 100 µM [13]: -51%
- growth at 1 µM [14]: 97%
- GI50 [15]: 3.97 µM
- LC50 [15]: > 100 µM
- TGI [15]: 25.1 µM
- growth at 0.1 µM [16]: 91%
- growth at 0.1 µM [17]: 92%
- growth at 100 µM [18]: -13%
- GI50 (SK-MEL-2 [19]): 2.32 µM
- TGI (SK-MEL-2 [19]): 6.7 µM
- CC50 (SK-MEL-2 [19]): 81.6 µM
- growth at 0.1 µM (SK-MEL-2 [20]): 97%
- growth at 1 µM [21]: 99%
- growth at 0.1 µM (ACHN [22]): 100%
- growth at 0.1 µM (MCF7): 89%
- growth at 1 µM [23]: 94%
- growth at 0.01 µM (SR): 91%
- GI50 [24]: 3.05 µM
- TGI [24]: 12.4 µM
- CC50 [24]: > 100 µM
- growth at 1 µM (T47D): 100%
- growth at 0.01 µM [25]: 95%
- GI50 [26]: 2.53 µM
- LC50 [26]: > 100 µM
- TGI [26]: 12.8 µM
- growth at 0.1 µM (K562): 98%
- growth at 100 µM [27]: -42%
- growth at 0.01 µM [28]: 104%
- growth at 0.01 µM (MDA-MB-468): 92%

Compound: CNC(=O)c1cc(Oc2ccc3nc(NC(=O)Nc4ccc(Cl)c(Cl)c4)sc3c2)ccn1
- inhibition [29]: 67.6%
- GI50 [1]: 1.98 µM
- LC50 (concentration killing 50% of cells) [1]: 8.97 µM
- TGI [1]: 4.21 µM
- growth at 1 µM [2]: 106%
- GI50 [3]: 2.77 µM
- TGI [3]: 6.66 µM
- CC50 [3]: > 100 µM
- growth at 1 µM (NCI-H226): 109%
- growth at 100 µM [4]: -75%
- growth at 0.1 µM [5]: 110%
- GI50 [6]: 2.06 µM
- TGI [6]: 4.03 µM
- CC50 [6]: 7.89 µM
- growth at 0.1 µM [7]: 100%
- growth at 100 µM [8]: -57%
- growth at 0.01 µM (CCRF-CEM): 102%
- growth at 0.1 µM (A549): 96%
- growth at 1 µM [9]: 91%
- growth at 100 µM (ACHN [10]): -18%
- GI50 [11]: 1.88 µM
- LC50 (concentration killing 50% of the starting cells) [11]: 11.5 µM
- TGI [11]: 4.35 µM
- growth at 100 µM [12]: -20%
- growth at 100 µM [13]: -72%
- growth at 1 µM [14]: 113%
- GI50 [15]: 3.71 µM
- LC50 [15]: > 100 µM
- TGI [15]: > 100 µM
- growth at 0.1 µM [16]: 105%
- growth at 0.1 µM [17]: 112%
- growth at 100 µM [18]: -68%
- GI50 (SK-MEL-2 [19]): 2.56 µM
- TGI (SK-MEL-2 [19]): 5.97 µM
- CC50 (SK-MEL-2 [19]): > 100 µM
- growth at 0.1 µM (SK-MEL-2 [20]): 118%
- growth at 1 µM [21]: 88%
- growth at 0.1 µM (ACHN [22]): 94%
- growth at 0.1 µM (MCF7): 89%
- growth at 1 µM [23]: 95%
- growth at 0.01 µM (SR): 108%
- GI50 [24]: 4.88 µM
- TGI [24]: > 100 µM
- CC50 [24]: > 100 µM
- growth at 1 µM (T47D): 106%
- growth at 0.01 µM [25]: 99%
- GI50 [26]: 1.95 µM
- TGI [26]: 4.33 µM
- growth at 0.1 µM (K562): 98%
- growth at 100 µM [27]: -22%
- growth at 0.01 µM [28]: 89%
- growth at 0.01 µM (MDA-MB-468): 94%
